Experimental data taken from US8912136B2, “Methods and compositions related to clot-binding compounds” (Sanford-Burnham Medical Research Institute, priority 2009, dated 2014).
Where no end group is shown, it is not given here. [ ]: non-standard residue; d: D form. NMeR = CN[C@@H](CCCNC(=N)N)C(=O)O; αMeR = C[C@](N)(CCCNC(=N)N)C(=O)O; NMeE = CN[C@@H](CCC(=O)O)C(=O)O; αMeE = C[C@](N)(CCC(=O)O)C(=O)O

Assays:
[1] = test system: orthotopic 22Rv1 xenograft tumors; experiment: In vivo homing of FAM-labeled CREKA and methylated CREKA peptides; set-up: species or system mouse; conditions: for tumor fluorescence compared to unmodified CREKA: 200 μg FAM-conjugated peptide, 3 hrs, Image J
Experimental: Tumor accumulation of CREKA peptide and its N-methylated and C-methylated variants. The accumulation of N-methylated and C-methylated derivatives of CREKA was measured in mice bearing orthotropic 22Rv-1 xenograft tumors. The mice were intravenously injected with 200 μg of FAM-conjugated CREKA or methylated CREKA peptides derivatives. The peptides were allowed to circulate for 3 hrs. The mice were then perfused through the heart with PBS, and organs were collected and the fluorescence was measured under UV light. The fluorescence was analyzed with Image J software. Most N/C-methylated CREKA analogs produced stronger fluorescence compared to the unmodified CREKA. […] In FIG. 10B the enhanced fluorescence of CR(NMe)EKA is shown in the tumor compared to both CREKA and C(NMe)REKA peptide. It is shown that FAM-labeled CREKA peptide in which the glutamic acid is N-methylated accumulates in tumor tissue more strongly than unmodified CREKA.
Orthotopic prostate cancers were used when they reached 0.5-1 cm in size. Synthetic peptides labeled with fluorescein (approximately 200 μg) were intravenously injected into tumor-bearing mice and allowed to circulate for 15 minutes to 3 hours. The mice were perfused with PBS through the heart under anesthesia, and tissues were collected and observed under UV light (Illumatool Bright Light System LT-9900, Lightools Research, Encinitas, Calif.), and then processed for immunofluorescence or immunohistochemistry.

mouse plasma clots = experiment: Nanoparticle binding to plasma clots in vitro
Experimental: (§1) Phage and nanoparticle binding to clots. Phage binding to clotted plasma proteins was determined as described (Pilch 2006). CREKA-SPIO and control SPIO were added to freshly formed plasma clots in the presence or absence of free CREKA peptide. After 10 min incubation, the clots were washed 4 times in PBS, transferred to a new tube and digested in 100 μl concentrated nitric acid. The digested material was diluted in 2 ml distilled water and the iron concentration was determined using inductively coupled plasma-optical emission spectroscopy (ICP-OES, PerkinElmer, Norwalk, Conn.).

human plasma clots = experiment: Nanoparticle binding to plasma clots in vitro
Experimental: as §1

[2] = test system: MDA-MB-435 human breast cancer xenograft tumors; experiment: Nanoparticle/liposome tumor homing and clotting in tumor vessels; type: in vivo, mouse
Experimental: Nanoparticle injections. For intravenous injections, the animals were anesthetized with intraperitoneal Avertin, and liposomes (2 μmol DSPC) and/or nanoparticles (1-4 mg Fe/kg body weight) were injected into the tail vein. The animals were sacrificed 5-24 h post-injection by cardiac perfusion with PBS under anesthesia, and organs were dissected and analyzed for particle homing. To suppress liver macrophages, mice were intravenously injected with liposomal clodronate suspension (100 μl per mouse), and the mice were used for experiments 24 hours later.
Intravital microscopy. Tumor blood flow in MDA-MB 435 xenograft-bearing mice was observed by intravital microscopy. Mice were pre-injected with Ni-liposomes and 5×10^8 of DiI-labeled erythrocytes. A skin flap was moved aside to expose the tumors, and the mice were intravenously injected with 4 mg/kg of fluorescein-CREKA-SPIO (time “0”). The tumors were scanned with IV-100 intravital laser scanning microscope (Olympus Corp., Tokyo, Japan) using an IV-OB35F22W29 MicroProbe objective (Olympus Corp., Tokyo, Japan). Movies were recorded at 10 min intervals up to 120 min post-injection.
Magnetic measurements of the tissue samples using Superconducting Quantum Interference Device (SQUID) magnetometer. Tissue samples were frozen immediately upon collection, lyophilized, weighed, and placed in gelatin capsules. The capsules were inserted into the middle of transparent plastic straws for magnetic measurements made using a Quantum Design MPMS2 SQUID magnetometer (San Diego, Calif.) operated at 150 K. The samples were exposed to direct current magnetic fields in stepwise increments up to one Tesla. Corrections were made for the diamagnetic contribution of tissue, capsule and straw.

[3] = Nanoparticle clearance (blood half-life); type: in vivo, mouse
Experimental: Nanoparticle injections. For intravenous injections, the animals were anesthetized with intraperitoneal Avertin, and liposomes (2 μmol DSPC) and/or nanoparticles (1-4 mg Fe/kg body weight) were injected into the tail vein. The animals were sacrificed 5-24 h post-injection by cardiac perfusion with PBS under anesthesia, and organs were dissected and analyzed for particle homing. To suppress liver macrophages, mice were intravenously injected with liposomal clodronate suspension (100 μl per mouse), and the mice were used for experiments 24 hours later. Nanoparticle clearance. Heparinized capillaries were used to draw 50 μA of blood from the periorbital plexus at different times after nanoparticle injection, the blood was centrifuged at 300 g for 2 min, and a 10 μA aliquot of platelet-rich plasma was diluted into 600 μl 1M Tris solution, pH 8.4. Fluorescence was determined on a PerkinElmer (Norwalk, Conn.) LS50B spectrofluorometer, and plotted as a function of the time the particles had circulated.

[4] = test system: 22Rv1 orthotopic human prostate cancer tumors; experiment: Homing and clotting of peptide-coated iron oxide nanoworms/SPIO; type: in vivo, mouse; conditions: intravenous, Example 2
Experimental: To analyze NW biodistribution, mice bearing orthotopic 22Rv1 tumors were injected into the tail vein (5 mg of iron per kg body weight). In homing experiments, the mice were euthanized 5-6 hours after the injection by cardiac perfusion with PBS under anesthesia, and organs were dissected and analyzed for particle homing. In tumor treatment experiments, nude mice bearing 2 week-old 22Rv-1 or LAPC9 orthotopic xenografts (typically about 200-250 mm^3 in tumor volume) were intravenously injected with NW in 150 μl PBS or PBS as a control. The NW were injected every other day for 14 days. The total cumulative dose was 35 mg iron/kg. At the end of the treatment, the mice were perfused with PBS under anesthesia, and the tumors were harvested. Tumor volume was calculated using the following formula: volume (mm3)=(d2×D)/2, where d and D are the smallest and largest tumor diameters, respectively. […] The primary antibodies were detected with Alexa 647 goat anti-rat, and 647 donkey anti-goat secondary antibodies (1:1000; Molecular Probes, Eugene, Oreg.). […] The primary antibody was detected with biotinylated anti-mouse IgG and Vectastain ABC kit (Vector Laboratories, Burlingame, Calif.). […] To quantify the homing area of fibrin(ogen) within tumors the stained section were scanned with the Scanscope CM-1 scanner and analyzed with the ImageScope software41 (Aperio Technologies, Vista, Calif.).

[5] = intravenous, no decoy pretreatment

C(NMe)REKA: CREKA analog in which the arginine residue is N-methylated (C[NMeR]EKA)
tumor fluorescence compared to unmodified CREKA [1]: did not show an enhanced fluorescence | tumor accumulation / fluorescence of CREKA analogs ([1]; FAM-labeled peptides, Example 3): only weak tumor fluorescence

CR(CMe)EKA: Cα-methylated CREKA analog (C[αMeR]EKA)
tumor fluorescence compared to unmodified CREKA [1]: significantly more fluorescence

CR(NMe)E(NMe)KA: doubly N-methylated CREKA analog (C[NMeR][NMeE]KA)
tumor fluorescence compared to unmodified CREKA [1]: significantly more fluorescence

CRE(CMe)KA: Cα-methylated CREKA analog (CR[αMeE]KA)
tumor fluorescence compared to unmodified CREKA [1]: significantly more fluorescence | accumulation in areas rich in fibrin(ogen) and fibronectin ([1]; confocal microscopy of tumor sections): equally active

CRE(NMe)KA: N-methylated CREKA analog (CR[NMeE]KA)
tumor fluorescence compared to unmodified CREKA [1]: significantly more fluorescence

CREKA-SPIO: fluorescein-labeled CREKA coupled onto 50 nm superparamagnetic amino dextran-coated iron oxide nanoparticles (not fully specified (N-terminus); also: conjugated to dextran-coated superparamagnetic iron oxide nanoparticles (SPIO))
binding to plasma clots (mouse plasma clots): bound to mouse and human plasma clots | binding to plasma clots (human plasma clots): bound to mouse and human plasma clots | whole-body scan tumor signal ([2]; Cy7-labeled, near infrared): effectively accumulated in tumors | intravital confocal microscopy of tumor blood vessels ([2]; DiI-labeled erythrocytes as flow marker, 4 mg/kg): time-dependent clot formation and obstruction of blood flow | accumulation in Ni-liposome-pretreated compared to PBS-pretreated mice ([2]; SQUID tumor magnetization and fluorescence signal): about 6 fold | reduction of tumor accumulation by heparin ([2]; SQUID, heparin prior to injection): more than 50% | tumor vessel lumens filled with fluorescent masses (occlusion) ([2]; after liposome pretreatment): up to 20% | effect of thrombocytopenia on homing ([2]; anti-CD41 monoclonal antibody): no noticeable effect | heparin effect on intravascular clotting ([2]; heparin pretreatment): essentially eliminated | heparin effect on number of vessels with nanoparticles bound to the vessel walls ([2]; heparin pretreatment): did not significantly reduce | accumulation in tumor [2, 5]: did not accumulate effectively | particles in reticuloendothelial system (RES) tissues [2, 5]: high concentration of particles | tumor homing after Ni-liposome pretreatment ([2]; pretreatment 5 min or 48 h prior): greatly increased the tumor homing | localization of nanoparticle-induced clotting ([2]; tumor versus kidneys, lungs, liver): essentially confined to tumor vessels | prolongation in particle half-life ([3]; after depleting RES macrophages with liposomal clodronate): ~5 fold | blood half-life and tumor homing after decoy particles ([3]; plain liposomes as decoy particles): prolonged the blood half-life | tumor homing [4]: effectively home to 22Rv-1 tumors
